Experiment [1] has as its target Myc-GyrB-FGFR fusion protein (Homo sapiens, UniProt P11362). As to the kind of experiment: Biochemical FGFR assay (ELISA).
Description: This assay measures in vitro kinase activity of the Myc-GyrB-FGFR fusion protein using ELISA.
Materials and Reagents • 1. HNTG
PBS (Dulbecco's Phosphate-Buffered Saline, Gibco Catalog # 450-1300EB). • 3. Blocking Buffer. • 4. Kinase Buffer.
Working solution: 100 mM in ethanol. • 6.
ABTS Solution. • 10. Hydrogen peroxide 30% solution ( Fisher Catalog # H325). • 11. ABTS/H2O2. • 12. 0.2 M HCl. • 13.
Prepare 1.0 mM solution in MilliQ H2O, adjust pH to 7.2 with HCl. • 14.
Prepare 5 M solution in MilliQ H2O. • 15. MgCl, (Fisher Cat. No. M33-500).
Prepare 1 M solution in MilliQ H2O. • 16. HEPES (Fisher Cat. No. BP310-500).
Prepare 1 M solution in MilliQ H2O, adjust pH to 7.5, sterile filter. • 17. TBST Buffer. • 18. Sodium Carbonate Buffer (Fisher Cat. No. S495).
Prepare 0.1 M solution in MilliQ H2O, adjust pH to 9.6 with NaOH, filter. • 19. Dithiothreitol (DTT, Fisher Cat. No. BP172-25).
Prepare 0.5 mM working solution in MilliQ H2O just prior to-use. Store at −20° C. until used, discard any leftover. • 20. MnCl2. • 21. Triton X-100. • 22. Goat α-Rabbit IgG (Cappel). • 23. Affinity purified Rabbit α GST GyrB (Biochemistry Lab. SUGEN, Inc.).
All of the following steps are conducted at room temperature unless otherwise indicated. • 1. Coat Corning 96-well ELISA plates with 2 μg Goat α-Rabbit antibody per well in Carbonate Buffer such that total well volume is 100 μl. Store overnight at 40° C. • 2. Remove unbound Goat a-Rabbit antibody by inverting plate to remove liquid. Pat plate on a paper towel to remove excess liquid and bubbles • 3.. Add 150 μl Blocking Buffer (5% Low Fat Milk in PBS) to each well. Incubate while shaking on a micro-titer plate shaker for 30 min. • 4. Wash 4× with TBST. Pat plate on a paper towel to remove excess liquid and bubbles. • 5. Add 0.5 μg Rabbit α-GyrB antibody per well. Dilute antibody in DPBS to a final volume of 100 μl per well. Incubate with shaking on a micro-titer plate shaker at room temperature for 1 hour. • 6. Wash 4× with TBST as described in step 4. • 7. Add 2 μg COS/FGFR cell lysate (Myc-GyrB-FGFR source) in HNTG to each well to give a final volume of 100 μl per well. Incubate with shaking on a micro-titer plate shaker for 1 hour. • 8. Wash 4× with TBST as described in step 4. • 9. Add 80 μl of 1× kinase buffer per well. • 10. […] Transfer 10 μ l of diluted test compound solution and control wells from polypropylene plate wells to the corresponding ELISA plate wells, incubate with shaking on a micro-titer plate shaker for 20 minutes. • 12. Add 10 μl of 70 μM ATP diluted in kinase buffer to positive control and test wells (Final ATP concentration is 7 EM/well). Add 10 μl 1× kinase buffer to negative control wells. Incubate with shaking on a micro-titer plate shaker for 15 min. • 13. Stop kinase reaction by adding 5 μl 0.5 M EDTA to all wells. • 14. Wash 4× with TBST as described in step 4. • 15. Add 100 μl biotin conjugated α-phosphotyrosine mab (b4G10) diluted in TBST to each well. Incubate with shaking on a micro-titer plate shaker for 30 minutes. • 16. Prepare Vectastain ABC reagent. […] Mix by inverting tube several times. Add 1 drop reagent B and mix again. • 17. Wash 4× with TBST as described in step 4. • 18. Add 100 μl ABC HRP reagent to each well. Incubate with shaking on a micro-titer plate shaker for 30 minutes. • 19. Wash 4× with TBST as described in step 4. • 20. Add 100 μl of ABTS/H2O2 solution to each well. • 22. Incubate 5 to 15 minutes with shaking. Remove any bubbles. • 23. If necessary stop reaction by adding 1 00 μl of 0.2M HCl/well. • 24.
A further experiment deals with T1, flkGST (Homo sapiens, UniProt P35968).
T1 construct: GST
As to the kind of experiment: bio flkGST assay. Type of experiment: biochemical.

For the next experiment, the target named is T2, PDGFR-β (Homo sapiens, UniProt P09619).
T2 construct: host or cells: NIH 3T3
As to the kind of experiment: Biochemical PDGFR assay (ELISA, PDGFR-β expressing NIH 3T3 cell lysate). To be noted: read-out: bio PDGF IC50. The method in brief:
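PDGFR-β from NIH 3T3 cell lysate captured on anti-PDGFR (28D4C10)-coated plates; compound preincubated 30 min, then 20 μM ATP kinase reaction 30 min at room temperature, stopped with EDTA. Phosphotyrosine detected by anti-phosphotyrosine antibody, peroxidase conjugate and ABTS/H2O2, read at 410 nm.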
A general note: An ELISA detects its analyte on a solid surface through an enzyme-linked reagent.

Read-outs that look alike come from different tables or passages of the source.

One may read the IC50 as the point on the concentration scale where inhibition reaches its midpoint.

T1 sequence (P35968 786-1356 limits assumed): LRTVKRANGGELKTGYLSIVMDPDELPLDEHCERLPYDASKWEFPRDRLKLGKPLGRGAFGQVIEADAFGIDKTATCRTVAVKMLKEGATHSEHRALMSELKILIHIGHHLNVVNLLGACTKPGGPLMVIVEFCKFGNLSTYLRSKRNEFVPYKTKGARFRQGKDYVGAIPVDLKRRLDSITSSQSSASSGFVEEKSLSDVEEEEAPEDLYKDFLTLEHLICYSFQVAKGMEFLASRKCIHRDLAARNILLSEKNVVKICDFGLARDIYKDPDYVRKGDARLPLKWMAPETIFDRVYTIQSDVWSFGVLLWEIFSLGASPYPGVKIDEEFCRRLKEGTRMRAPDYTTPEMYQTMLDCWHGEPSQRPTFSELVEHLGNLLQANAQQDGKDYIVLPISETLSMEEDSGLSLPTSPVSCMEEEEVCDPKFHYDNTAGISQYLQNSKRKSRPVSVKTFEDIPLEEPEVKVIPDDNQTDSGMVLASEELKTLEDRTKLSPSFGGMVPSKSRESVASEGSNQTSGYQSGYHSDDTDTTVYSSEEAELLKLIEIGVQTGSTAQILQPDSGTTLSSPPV
Chain of Myc-GyrB-FGFR fusion protein (P11362 478-767 limits assumed): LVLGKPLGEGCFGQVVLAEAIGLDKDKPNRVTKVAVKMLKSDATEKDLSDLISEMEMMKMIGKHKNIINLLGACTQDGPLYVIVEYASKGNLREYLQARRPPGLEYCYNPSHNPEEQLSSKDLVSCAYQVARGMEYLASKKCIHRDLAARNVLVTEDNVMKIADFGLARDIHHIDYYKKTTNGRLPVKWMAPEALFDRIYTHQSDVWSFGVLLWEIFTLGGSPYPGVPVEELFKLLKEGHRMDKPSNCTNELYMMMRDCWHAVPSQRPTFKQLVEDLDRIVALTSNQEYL
T2 sequence (P09619 33-1106): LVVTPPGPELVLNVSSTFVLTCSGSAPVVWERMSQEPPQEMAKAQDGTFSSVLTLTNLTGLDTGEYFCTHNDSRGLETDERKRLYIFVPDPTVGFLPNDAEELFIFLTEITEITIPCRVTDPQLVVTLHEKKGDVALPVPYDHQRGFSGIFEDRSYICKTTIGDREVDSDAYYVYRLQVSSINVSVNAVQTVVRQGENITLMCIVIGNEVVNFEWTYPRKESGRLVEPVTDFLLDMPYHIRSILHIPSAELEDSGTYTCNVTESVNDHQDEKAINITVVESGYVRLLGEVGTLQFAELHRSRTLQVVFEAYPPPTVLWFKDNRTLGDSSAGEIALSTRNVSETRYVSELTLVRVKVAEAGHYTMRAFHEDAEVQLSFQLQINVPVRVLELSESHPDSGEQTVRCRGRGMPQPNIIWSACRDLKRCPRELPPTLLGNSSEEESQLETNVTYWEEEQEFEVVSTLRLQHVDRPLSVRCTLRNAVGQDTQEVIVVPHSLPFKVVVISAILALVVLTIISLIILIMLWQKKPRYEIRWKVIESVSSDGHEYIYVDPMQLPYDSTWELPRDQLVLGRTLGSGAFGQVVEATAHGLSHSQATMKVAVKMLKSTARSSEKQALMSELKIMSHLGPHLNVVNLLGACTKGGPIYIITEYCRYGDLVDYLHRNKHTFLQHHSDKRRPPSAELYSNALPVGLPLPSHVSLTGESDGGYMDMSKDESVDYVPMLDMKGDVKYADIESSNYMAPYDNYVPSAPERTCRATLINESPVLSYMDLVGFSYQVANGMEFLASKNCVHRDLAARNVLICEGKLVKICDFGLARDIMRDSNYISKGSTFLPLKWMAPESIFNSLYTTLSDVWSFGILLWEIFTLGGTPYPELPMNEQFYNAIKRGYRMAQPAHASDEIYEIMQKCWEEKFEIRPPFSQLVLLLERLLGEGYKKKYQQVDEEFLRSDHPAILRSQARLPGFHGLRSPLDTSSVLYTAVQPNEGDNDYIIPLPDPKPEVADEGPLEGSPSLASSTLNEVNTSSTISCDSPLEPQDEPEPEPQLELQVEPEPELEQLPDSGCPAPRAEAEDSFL

Consider `NS(=O)(=O)c1ccc2c(c1)/C(=C/c1c[nH]c3ccccc13)C(=O)N2` [Example 172, 3-(1H-Indol-3-ylmethylene)-2-oxo-2,3-dihydro-1H-indole-5-sulfonic acid amide], for which the IC50 is 280 nM in experiment [1] (read-out: bio fgfR1 IC50), 10500 nM against flkGST and 89400 nM on PDGFR-β.
In the case of `COc1cccc(-c2ccc3c(c2)NC(=O)/C3=C\c2[nH]cc(C)c2CCC(=O)O)c1` [Example 223, 3-{2-[6-(3-Methoxyphenyl)-2-oxo-1,2-dihydro-indol-3-ylidenemethyl]-4-methyl-1H-pyrrol-3-yl}-propionic acid], the IC50 in experiment [1] (read-out: bio fgfR1 IC50) worked out at 1220 nM; at flkGST it was 570 nM; at PDGFR-β, 781 nM.
For `O=C(O)CCc1c(/C=C2\C(=O)Nc3cc(Cl)ccc32)[nH]c2c1CCCC2` [Example 195, 3-[2-(6-Chloro-2-oxo-1,2-dihydroindol-3-ylidenemethyl)-4,5,6,7-tetrahydro-1H-indol-3-yl]-propionic acid], the 50% inhibitory concentration (IC50) in experiment [1] (read-out: bio fgfR1 IC50) worked out at 20 nM; on flkGST, 4350 nM; at PDGFR-β, 2040 nM.
On the same counts, the results for `O=C(O)CCc1c(/C=C2\C(=O)Nc3ccc(Cl)cc32)[nH]c2c1CCCC2` [Example 191, 3-[2-(5-Chloro-2-oxo-1,2-dihydroindol-3-ylidenemethyl)-4,5,6,7-tetrahydro-1H-indol-3-yl]-propionic acid] are 40 nM, 40 nM and 50 nM.
Turning to `Cc1c[nH]c(/C=C2\C(=O)Nc3ccccc32)c1CCC(=O)O` [Example 215, 3-[4-Methyl-2-(2-oxo-1,2-dihydroindol-3-ylidenemethyl)-1H-pyrrol-3-yl]-propionic acid], the IC50 amounted to 70 nM in experiment [1] (bio fgfR1 IC50), 80 nM against flkGST and 500 nM on PDGFR-β.
As to `Cc1[nH]c2ccccc2c1/C=C1\C(=O)Nc2ccc(C(=O)O)cc21` [Example 182, 3-(2-Methyl-1H-indol-3-ylmethylene)-2-oxo-2,3-dihydro-1H-indole-5-carboxylic acid], the values for the IC50 (in experiment [1] (read-out: bio fgfR1 IC50); against flkGST; on PDGFR-β) were 5940 nM, 18700 nM and 5400 nM, respectively.
Consider `COc1ccc2c(c1)NC(=O)/C2=C\c1[nH]c2c(c1CCC(=O)O)CCCC2` [Example 196, 3-[2-(6-Methoxy-2-oxo-1,2-dihydroindol-3-ylidenemethyl)-4,5,6,7-tetrahydro-1H-indol-3-yl]-propionic acid], for which the values for the IC50 (in experiment [1] (read-out: bio fgfR1 IC50); against flkGST; on PDGFR-β) were 50 nM, 410 nM and 33700 nM, respectively.
On the same counts, the results for `CCOC(=O)c1c(C)[nH]c(/C=C2\C(=O)Nc3ccc(Br)cc32)c1CCC(=O)O` [Compound 114, 5-(5-Bromo-2-oxo-1,2-dihydroindol-3-ylidenemethyl)-4-(2-carboxyethyl)-2-methyl-1H-pyrrole-3-carboxylic acid ethyl ester] are 4260 nM, 3310 nM and 50 nM.
On the same counts, the results for `COc1cccc(-c2ccc3c(c2)NC(=O)/C3=C\c2[nH]c3c(c2CCC(=O)O)CCCC3)c1` [Example 204, 3-{2-[6-(3-Methoxyphenyl)-2-oxo-1,2-dihydro-indol-3-ylidenemethyl]-4,5,6,7-tetrahydro-1H-indol-3-yl}-propionic acid] are 590 nM, 70 nM and 680 nM.
In the case of `O=C(O)CCc1c(/C=C2\C(=O)Nc3ccccc32)[nH]c2c1CCCC2` [Example 190, 3-[2-(2-Oxo-1,2-dihydro-indol-3-ylidenemethyl)-4,5,6,7-tetrahydro-1H-indol-3-yl]-propionic acid], the values for the 50% inhibitory concentration (IC50) (in experiment [1] (read-out: bio fgfR1 IC50); at flkGST; at PDGFR-β) were 5850 nM, 87 nM and 2080 nM, respectively.
On the same counts, the results for `Cc1[nH]c2ccccc2c1/C=C1\C(=O)Nc2ccc(N)cc21` [Example 187, 5-Amino-3-(2-methyl-1H-indol-3-ylmethylene)-1,3-dihydroindol-2-one] are 13800 nM, > 20000 nM and > 100000 nM.

For the origin of these results see patent US6855730B2, “3-methylidenyl-2-indolinone modulators of protein kinase” (Sugen, Inc., priority 1998, dated 2005).
